Several values for one entry are separate records, joined by “and”; a condition that tells them apart may be missing. Identical values can stand only once. Entries after “also recorded” stand apart in the source; their conditions may differ.
Experiments:
[1] = system: BjaRWT (B0033|ATG) receiver cells; experiment: BjaR receiver cell AHSL dose-response (gfp reporter, plate reader); format: cell-based, E. coli XL10-Gold; conditions: for Mean normalised fluorescence / Normalised fluorescence / GFP: sheet 3e; for Normalised fluorescence / GFP: Expt1-3; for GFP: raw fluorescence ex 488/em 510 nm
Source text: (§1) These findings are consistent with the predicted translation initiation rates of the respective sequences—translation from the BBa_B0033 RBS provides 1% of protein yield compared to the BBa_B0034 RBS, just as an CTG start codon provides 1% of the protein yield compared to an ATG start codon[30],[31]. This also offers support as to why the ON-state gfp expression level increased in variants with a tighter OFF-state; more cellular resources were available for GFP synthesis when comparatively fewer were allocated to BjaR synthesis. To elucidate the impact of the S107R variant on gene circuit performance, we introduced the S107R variant alone back into the bjaRWT gene, in the context of the BBa_B0033 RBS background.
(§2) In addition to quantifying how these BjaR receiver cells responded to their branched, cognate ligand, we also sought to determine whether the BjaR receiver cells could be activated by structurally dissimilar AHSLs involved in the LuxI/R, EsaI/R, LasI/R and RhlI/R QS systems previously used in synthetic cell communication[5],[7],[8]. To this end, we measured the fluorescence of BjaR receiver cells grown in the presence of their activators, 3OC6-HSL, 3OC12-HSL and C4-HSL, respectively (Supplementary Fig. 13a).
(§3) The BjaR reporter plasmids were retransformed into E. coli XL10-Gold cells for each experiment. A single colony was used to inoculate 5 ml LB + Amp media and incubated at 37 °C, 225 r.p.m. overnight. Overnight cultures were diluted 1/250 or 1/500 in 5 ml M9 minimal media + Amp and incubated at 37 °C, 225 r.p.m. for 3 h and 45 min (until OD600 = ~0.075). Cultures were diluted down to OD600 = 0.05 with M9 minimal media + Amp, and 200 µl was added to wells of a 96-well plate containing 1 µl IV-HSL dissolved in DMSO or 1 µl BjaI CFPS reactions (IV-HSL concentrations obtained from serial dilution from 63.2 µM to 632 pM; final DMSO concentration = 0.5%). Cells were incubated at 37 °C, 800 r.p.m., in a thermomixer with a heated lid for 4 h. Fluorescence and OD600 were measured in a Tecan M1000 infinite plate reader (excitation, 488 nm; emission, 510 nm; bandwidth, 5 nm; gain, 101 and z position, 21,311 µm). The dose–response curves were fitted to the function indicated by Eq. (1), where a = maximal fluorescence output, b = basal fluorescence output, X = concentration of AHSL, GFP = fluorescence at the given condition, EC50 = AHSL at 50% maximal fluorescence output and h = hill coefficient. EC50 and h were derived using the nonlinear regression model based on Eq. (1), in MATLAB. A summary of the dose–response data is available in Supplementary Table 1.1 GFP=b+a−b/1+10^logEC50−X×h

[2] = system: BjaRS107R (B0033|ATG) receiver cells; experiment: as above; format: cell-based, E. coli XL10-Gold
Source text: as §1, §2, §3

pRhlI promoters (RhlR) = system: pRhlI promoters (RhlR); parameters: method as in PMID 29992956; conditions: cited from earlier work

## CCCC(=O)CC(=O)N[C@H]1CCOC1=O [3OC6-HSL, N-(3-oxo-hexanoyl)-L-homoserine lactone]
[1]
  gfp expression in response to non-cognate AHSL: did not express gfp; also recorded: minimal GFP was produced
[2]
  gfp expression in response to non-cognate AHSL: minimal GFP was produced

## CCCCCCCCCC(=O)CC(=O)N[C@H]1CCOC1=O [3OC12-HSL]
[1]
  gfp expression in response to non-cognate AHSL: did not express gfp; also recorded: minimal GFP was produced
[2]
  gfp expression in response to non-cognate AHSL: minimal GFP was produced

## CCCC(=O)N[C@H]1CCOC1=O [C4-HSL, N-butyryl-L-homoserine lactone]
[1]; 0.36 µM
  activation of receiver cells at maximal concentration tested: partially activated
[1]; C4-HSL vs IV-HSL
  C4-HSL required relative to IV-HSL for the same fluorescence output (lower sensitivity): ~126 ×
[2]; C4-HSL vs IV-HSL
  sensitivity for IV-HSL over C4-HSL: ~126 fold
pRhlI promoters (RhlR)
  concentration required to fully activate expression from pRhlI promoters: > 100 µM

## CCCC(=O)N[C@H]1CCOC1=O [C4HSL]
[1]; Log([ASHL]) -6.5
  Mean normalised fluorescence: 89755.1
  Normalised fluorescence: 87597.7 and 86111.2 and 95556.3
  GFP: 21193 and 21411 and 30615
[1]; Log([ASHL]) -7
  Mean normalised fluorescence: 24851.4
  Normalised fluorescence: 25795.6 and 21987 and 26771.5
  GFP: 6504 and 5697 and 8639
[1]; Log([ASHL]) -7.5
  Mean normalised fluorescence: 5633.53
  Normalised fluorescence: 5943.36 and 4742.76 and 6214.47
  GFP: 1544 and 1323 and 2047
[1]; Log([ASHL]) -8
  Mean normalised fluorescence: 2030.88
  Normalised fluorescence: 2169.85 and 1704.52 and 2218.28
  GFP: 628 and 544 and 810
[1]; Log([ASHL]) -8.5
  Mean normalised fluorescence: 1297.09
  Normalised fluorescence: 1166.04 and 1369.65 and 1355.57
  GFP: 416 and 558 and 438
[1]; Log([ASHL]) -9
  Mean normalised fluorescence: 1170.67
  Normalised fluorescence: 1077.7 and 1245.14 and 1189.19
  GFP: 387 and 507 and 403
[1]; Log([ASHL]) -9.5
  Mean normalised fluorescence: 1170.76
  Normalised fluorescence: 1086.47 and 1200.78 and 1225.03
  GFP: 387 and 492 and 393
[1]; Log([ASHL]) -10
  Mean normalised fluorescence: 1105.3
  Normalised fluorescence: 1065.28 and 1106.75 and 1143.86
  GFP: 377 and 461
[1]; Log([ASHL]) -10.5
  Mean normalised fluorescence: 1140.47
  Normalised fluorescence: 1078 and 1145.04 and 1198.38
  GFP: 375 and 468 and 384
[1]; Log([ASHL]) -11
  Mean normalised fluorescence: 1127.16
  Normalised fluorescence: 1056.83 and 1148.2 and 1176.47
  GFP: 372 and 467 and 379
[1]; Log([ASHL]) -11.5
  Mean normalised fluorescence: 1165.29
  Normalised fluorescence: 1094.25 and 1223.38 and 1178.24
  GFP: 376 and 387 and 476

## CCCCCC(=O)N[C@H]1CCOC1=O [C6HSL]
[1]; Log([ASHL]) -6.5
  Mean normalised fluorescence: 1368.65
  Normalised fluorescence: 1655.84 and 1049.46 and 1400.63
  GFP: 525 and 399 and 567
[1]; Log([ASHL]) -7
  Mean normalised fluorescence: 1069.59
  Normalised fluorescence: 1188.52 and 915.717 and 1104.54
  GFP: 407 and 365 and 478
[1]; Log([ASHL]) -7.5
  Mean normalised fluorescence: 1072.17
  Normalised fluorescence: 1112.94 and 960.351 and 1143.21
  GFP: 387 and 361 and 491
[1]; Log([ASHL]) -8
  Mean normalised fluorescence: 1019.8
  Normalised fluorescence: 1032.26 and 951.298 and 1075.83
  GFP: 373 and 371 and 472
[1]; Log([ASHL]) -8.5
  Mean normalised fluorescence: 1002.73
  Normalised fluorescence: 909.599 and 1094.09 and 1004.49
  GFP: 364 and 473 and 363
[1]; Log([ASHL]) -9
  Mean normalised fluorescence: 1027.01
  Normalised fluorescence: 916.088 and 1080.14 and 1084.79
  GFP: 364 and 464 and 378
[1]; Log([ASHL]) -9.5
  Mean normalised fluorescence: 1017.95
  Normalised fluorescence: 932.091 and 1057.66 and 1064.1
  GFP: 365 and 455 and 371
[1]; Log([ASHL]) -10
  Mean normalised fluorescence: 1072.17
  Normalised fluorescence: 960.615 and 1126.04 and 1129.87
  GFP: 370 and 475 and 378
[1]; Log([ASHL]) -10.5
  Mean normalised fluorescence: 1041.96
  Normalised fluorescence: 969.437 and 1060.85 and 1095.6
  GFP: 369 and 456 and 376
[1]; Log([ASHL]) -11
  Mean normalised fluorescence: 1037.02
  Normalised fluorescence: 937.562 and 1077.9 and 1095.59
  GFP: 358 and 462 and 368
[1]; Log([ASHL]) -11.5
  Mean normalised fluorescence: 1058.71
  Normalised fluorescence: 974.837 and 1085.17 and 1116.13
  GFP: 366 and 368 and 469

## CCCCCCCCCCCC(=O)N[C@H]1CCOC1=O [C12-HSL]
[1]; Log([ASHL]) -6.5
  Mean normalised fluorescence: 3660.47
[1]; Log([ASHL]) -7
  Mean normalised fluorescence: 1319.41
  Normalised fluorescence: 1877.08 and 986.388 and 1094.76
  GFP: 569 and 370 and 480
[1]; Log([ASHL]) -7.5
  Mean normalised fluorescence: 1262.26
  Normalised fluorescence: 1653.64 and 971.756 and 1161.39
  GFP: 519 and 366 and 490
[1]; Log([ASHL]) -8
  Mean normalised fluorescence: 1041.4
  Normalised fluorescence: 1139.61 and 918.045 and 1066.55
  GFP: 388 and 367 and 474
[1]; Log([ASHL]) -8.5
  Mean normalised fluorescence: 1040.51
  Normalised fluorescence: 943.135 and 1084.52 and 1093.88
  GFP: 358 and 472 and 378
[1]; Log([ASHL]) -9
  Mean normalised fluorescence: 1031.28
  Normalised fluorescence: 984.805 and 1073.68 and 1035.35
  GFP: 376 and 464 and 363
[1]; Log([ASHL]) -9.5
  Mean normalised fluorescence: 1017.68
  Normalised fluorescence: 918.306 and 1057.93 and 1076.79
  GFP: 351 and 459 and 368
[1]; Log([ASHL]) -10
  Mean normalised fluorescence: 1062.17
  Normalised fluorescence: 938.8 and 1069.72 and 1178
  GFP: 357 and 459 and 389
[1]; Log([ASHL]) -10.5
  Mean normalised fluorescence: 1063.23
  Normalised fluorescence: 1055.63 and 1095.89 and 1038.16
  GFP: 379 and 459 and 370
[1]; Log([ASHL]) -11
  Mean normalised fluorescence: 1104.13
  Normalised fluorescence: 961.19 and 1115.34 and 1235.86
  GFP: 359 and 475 and 401
[1]; Log([ASHL]) -11.5
  Mean normalised fluorescence: 1958.08
  GFP: 637 and 706 and 473

Source: PMC10449621, “Engineering cellular communication between light-activated synthetic cells and bacteria” (Nature Chemical Biology, 2023)
